{"source": "patent US20260223859A1", "about": "“PLANT DISEASE CONTROL COMPOSITION COMPRISING CULTURE BROTH OF STREPTOMYCES SP. JCK-6141 STRAIN OR EXTRACT OF CULTURE BROTH OF STRAIN, PREPARATION METHOD THEREFOR AND PLANT DISEASE CONTROL METHOD” (priority 2020, published 2026)", "key": {"Fusarium graminearum": {"tested_on": "Fusarium graminearum", "assay": "microbe, parasite or virus in culture", "format": "cell-based", "conditions": "24 h, read-out: MIC, F61 (μg/ml)"}, "Botryoshpaeria dothidea": {"tested_on": "Botryoshpaeria dothidea", "assay": "organism not typed", "format": "cell-based", "conditions": "24 hours at 25° C.; read-out: MIC, F61"}, "Botryritis cinerea": {"tested_on": "Botryritis cinerea", "assay": "organism not typed", "format": "cell-based", "conditions": "24 hours at 25° C.; read-out: MIC, F61"}, "Magnapothe oryzae": {"tested_on": "Magnapothe oryzae", "assay": "organism not typed", "format": "cell-based", "conditions": "24 h, read-out: MIC, F61 (μg/ml)"}, "[1]": {"tested_on": "Fusarium oxysporum f. sp. raphani", "assay": "microbe, parasite or virus in culture", "format": "cell-based", "conditions": "24 hours at 25° C., read-out: MIC, F61"}, "Phythium ultimum": {"tested_on": "Phythium ultimum", "assay": "organism not typed", "format": "cell-based", "conditions": "24 hours at 25° C.; read-out: MIC, F61"}, "Phytophthora cactorum": {"tested_on": "Phytophthora cactorum", "assay": "microbe, parasite or virus in culture", "format": "cell-based", "conditions": "24 hours at 25° C., read-out: MIC, F61"}, "Phytophthora cinnamomi": {"tested_on": "Phytophthora cinnamomi", "assay": "microbe, parasite or virus in culture", "format": "cell-based", "conditions": "24 hours at 25° C., read-out: MIC, F61"}, "Rhizoctonia solani [2]": {"tested_on": "Rhizoctonia solani", "assay": "microbe, parasite or virus in culture", "format": "cell-based", "conditions": "24 hours at 25° C., read-out: MIC, F61"}, "Magnaporthiopsis poae": {"tested_on": "Magnaporthiopsis poae", "assay": "microbe, parasite or virus in culture", "format": "cell-based", "conditions": "24 hours at 25° C., read-out: MIC, F61"}, "Valsa ceratosperma": {"tested_on": "Valsa ceratosperma", "assay": "microbe, parasite or virus in culture", "format": "cell-based", "conditions": "Cytospora ceratosperma; 24 hours at 25° C.; read-out: MIC, F61"}, "Curvularia lunata": {"tested_on": "Curvularia lunata", "assay": "microbe, parasite or virus in culture", "format": "cell-based", "conditions": "24 hours at 25° C., read-out: MIC, F61"}, "Sclerotinia homoeocarpa": {"tested_on": "Sclerotinia homoeocarpa", "assay": "microbe, parasite or virus in culture", "format": "cell-based", "conditions": "Clarireedia homoeocarpa; 24 hours at 25° C.; read-out: MIC, F61"}, "Colletotrichum horii": {"tested_on": "Colletotrichum horii", "assay": "microbe, parasite or virus in culture", "format": "cell-based", "conditions": "24 hours at 25° C., read-out: MIC, F61"}, "Phytophthora cambivora": {"tested_on": "Phytophthora cambivora", "assay": "microbe, parasite or virus in culture", "format": "cell-based", "conditions": "24 hours at 25° C., read-out: MIC, F61"}, "Endothia parasitica": {"tested_on": "Endothia parasitica", "assay": "microbe, parasite or virus in culture", "format": "cell-based", "conditions": "Cryphonectria parasitica; 24 hours at 25° C.; read-out: MIC, F61"}, "Gaeumannomyces graminis": {"tested_on": "Gaeumannomyces graminis", "assay": "microbe, parasite or virus in culture", "format": "cell-based", "conditions": "24 hours at 25° C., read-out: MIC, F61"}, "[3]": {"tested_on": "Fusarium oxysporum f. sp. cucumerinum", "assay": "microbe, parasite or virus in culture", "format": "cell-based", "conditions": "24 hours at 25° C., read-out: MIC, F61"}, "Puccinia recondite": {"tested_on": "Puccinia recondite", "assay": "In vivo control of wheat leaf rust", "conditions": "wheat cultivar Eunpa, 7 days after inoculation"}, "Rhizoctonia solani [4]": {"tested_on": "Rhizoctonia solani", "assay": "In vivo control of rice sheath blight (RSB)", "conditions": "rice cultivar Nakdong", "procedure": "The control efficacy of Streptomyces sp. JCK-6141 strain against rice sheath blight (RSB) was examined in vivo. As an experimental plant, the rice cultivar Nakdong (Oryza sativa L.) was used.\nOne day before pathogen inoculation, the Nakdong rice plants were treated by soil drenching with 10 ml of each of the 3-fold and 9-fold dilutions of the Streptomyces sp. JCK-6141 strain culture in distilled water. After putting an appropriate amount of Nakdong rice bran treated with the dilutions was put into a 1-L culture bottle and sterilized, followed by evenly inoculating finely ground mycelial mass of cultured Rhizoctonia solani into the pots where the rice plants had been grown. After inoculation, incubation was carried out for 3 days in a humid chamber (25° C.) and then for 4 days in an incubator with a relative humidity of 80%. Examination was made of the onset of the disease. As a control, the synthetic chemical fungicide Flutolanil was used at 20 μg/ml or 50 μg/ml concentration."}}, "data": [{"smiles": "CCCCCC[C@@]1(OC(=O)CCC(=O)O)CC[C@]2(CC[C@H](C)[C@@H](C/C=C(C)/C=C/[C@H](O)[C@@H](C)/C=C/C(=O)O)O2)O[C@H]1/C=C/C(C)=C/C(=O)O", "note": "[F61, reveromycin E]", "values": [{"measurement": "MIC", "setting": "Fusarium graminearum", "result": 0.195, "unit": "µg/mL"}, {"measurement": "MIC", "setting": "Botryoshpaeria dothidea", "result": 0.098, "unit": "µg/mL"}, {"measurement": "MIC", "setting": "Botryritis cinerea", "result": 1.56, "unit": "µg/mL"}, {"measurement": "MIC", "setting": "Magnapothe oryzae", "result": 0.78, "unit": "µg/mL"}, {"measurement": "MIC", "setting": "[1]", "result": 1.56, "unit": "µg/mL"}, {"measurement": "MIC", "setting": "Phythium ultimum", "result": 1.56, "unit": "µg/mL"}, {"measurement": "MIC", "setting": "Phytophthora cactorum", "result": 0.195, "unit": "µg/mL"}, {"measurement": "MIC", "setting": "Phytophthora cinnamomi", "result": 0.39, "unit": "µg/mL"}, {"measurement": "MIC", "setting": "Rhizoctonia solani [2]", "result": 1.56, "unit": "µg/mL"}, {"measurement": "MIC", "setting": "Magnaporthiopsis poae", "result": 0.0244, "unit": "µg/mL"}, {"measurement": "MIC", "setting": "Valsa ceratosperma", "result": 0.78, "unit": "µg/mL"}, {"measurement": "MIC", "setting": "Curvularia lunata", "result": 0.78, "unit": "µg/mL"}, {"measurement": "MIC", "setting": "Sclerotinia homoeocarpa", "result": 0.195, "unit": "µg/mL"}, {"measurement": "MIC", "setting": "Colletotrichum horii", "result": 0.049, "unit": "µg/mL"}, {"measurement": "MIC", "setting": "Phytophthora cambivora", "result": 0.195, "unit": "µg/mL"}, {"measurement": "MIC", "setting": "Endothia parasitica", "result": 1.56, "unit": "µg/mL"}, {"measurement": "MIC", "setting": "Gaeumannomyces graminis", "result": 3.12, "unit": "µg/mL"}, {"measurement": "MIC", "setting": "[3]", "result": 1.56, "unit": "µg/mL"}]}, {"smiles": "CC(C)Oc1cccc(NC(=O)c2ccccc2C(F)(F)F)c1", "note": "[Flutolanil]", "values": [{"measurement": "Wheat leaf rust control (%)", "setting": "Puccinia recondite; 20 μg/ml", "result": "73.3 ± 6.7", "unit": "b %"}, {"measurement": "Wheat leaf rust control (%)", "setting": "Puccinia recondite; 50 μg/ml", "result": "100.0 ± 0.0", "unit": "a %"}, {"measurement": "RSB Control (%)", "setting": "Rhizoctonia solani [4]; 20 μg/ml", "result": "100.0 ± 0.0", "unit": "a %"}, {"measurement": "RSB Control (%)", "setting": "Rhizoctonia solani [4]; 50 μg/ml", "result": "100.0 ± 0.0", "unit": "a %"}]}]}
